From patent US11123314B2 (NATIONAL CANCER CENTER, priority 2017, dated 2021)

Experiments:
[1] = test system: Miapaca2, Panc-1, CAPAN1, CAPAN2, ASPC-1, SNU-213, SNU-324, or BXPC-3 cells; assay: SRB assay, combined treatment with gossypol, phenformin and anti-cancer agent (triple combination); format: cell-based; conditions: 48 hours; compared with group given gossypol or phenformin alone; gossypol 2.5 or 5 μM, phenformin 100 μM, irinotecan 1 μM
Experimental: Specifically, Miapaca2, Panc-1, CAPAN1, CAPAN2, ASPC-1, SNU-213, SNU-324, or BXPC-3 cells were cultured. Each type of the cultured cells was treated with gossypol, phenformin, or irinotecan alone, or with a mixed drug thereof. […] As a control group, an untreated group with no drug treatment was used, and a relative cell proliferation level in each drug-treated group was expressed and calculated as a percentage as compared with the control group.

[2] = test system: Miapaca2, Panc-1, or Aspc-1 cells; assay: Intracellular ATP level (ATP Colorimetric/Fluorometric Analysis Kit); format: cell-based; conditions: gossypol 5 μM, phenformin 500 μM, alone or mixed; compared with control group with no drug treatment
Experimental: Then, an intracellular ATP level was checked with the ATP Colorimetric/Fluorometric Analysis Kit (BioVision, Milpitas, Calif., USA) according to the protocol provided by the manufacturer. The cultured cells were divided into 1×10^6 cells and 100 μl of ATP assay buffer was added thereto to dissolve the cells. Then, centrifugation was performed at 15,000×g for 2 minutes at 4° C., to separate only the supernatant. 2 to 50 μl of the separated supernatant was transferred to a 96-well plate, and then an ATP assay buffer was added to a final volume of 50 μl per well. Thereafter, an ATP reaction mixture containing 44 μl of ATP assay buffer, 2 μl of ATP probe, 2 μl of ATP converter, and 2 μl of developer mixture was added to the 96-well plate at 50 μl per well and mixing was performed.

[3] = test system: Miapaca2 pancreatic cancer cell line; assay: Pancreatic cancer mouse model (xenograft), tumor volume and weight; format: in vivo, Balb/c-nu mice; conditions: gossypol 40 mg/kg, phenformin 100 mg/kg, oral once a day, alone or combined; compared with solvent control
Experimental: (§1) First, 6- to 8-week-old Balb/c-nu mice (Central Lab. Animal, Highland Heights, Ky., USA) were prepared to make a pancreatic cancer mouse model. In addition, Miapaca2 pancreatic cancer cell line was cultured at 5.0×10^6 cells, and subcutaneously injected into the prepared mice with a 1-ml syringe. The mice were bred for 2 weeks, and divided into four groups in total, with each group containing 6 mice. The four groups were used as a solvent control group (10% DMSO, 40% PEG, 50% PBS), a group in which 40 mg/kg/100 μl of gossypol is administered alone, a group in which 100 mg/kg/100 μl of phenformin is administered alone, and a group in which gossypol+phenformin are administered in combination, respectively. To each mouse group was orally administered once a day the solvent or the drug, and the mice were bred in the same environment for a total of 61 days.
(§2) While breeding the mice, body weights and tumor sizes in each mouse group were checked every 3 days and averaged. A size of the initial tumor after injection of pancreatic cancer cells was determined using a caliper. A tumor volume was calculated using the following Equation 1.

[4] = test system: Miapaca2, Panc-1, or Aspc-1 cells; conditions: applied alone at low drug concentration (gossypol 5 or 10 μM; phenformin 100 or 500 μM)
Experimental: (§3) Specifically, each type of various pancreatic cancer cell lines, Miapaca-2, Panc-1, Aspc-1, SNU-410, SNU-324, and Bxpc-3 cells, was cultured, during which each type of cells was inoculated into a 96-well plate at a density of 5,000 to 20,000 cells/well depending on an amplification period of culture time. After inoculation, gossypol or phenformin was added to each well and incubated in a CO2 incubator for 24 hours. Then, the cells were fixed by adding 50% (w/v) cooled trichloroacetic acid (TCA) to each well so as to become a final concentration of 10%. The supernatant other than the fixed cells was removed and the plate was washed about five times with tap water and then air dried. After drying, 0.4% (w/v) sulforhodamine B buffer solution containing 1% acetic acid was added to each well, and the plate was left to stand at room temperature for 10 minutes so that the cells were stained. After staining the cells, the plate was washed 5 times with 1% acetic acid to remove unstained dye, and then air dried. The stained dye was immobilized with 10 mM trizma base, and then absorbance was measured at 515 nm using a plate reader.
Specifically, Miapaca2, Panc-1, or Aspc-1 cells were cultured. Each type of the cultured cells was treated with a mixed drug obtained by mixing gossypol 5 μM and phenformin 100 μM, or gossypol 10 μM and phenformin 500 μM, and cultured in the same manner.

[5] = test system: normal epithelial cell line IMR90; assay: Annexin V-FITC/PI apoptosis detection by flow cytometry in normal cells; conditions: gossypol 10 μM, phenformin 100 μM, alone or mixed; 24, 48 and 72 hours
Experimental: First, the normal epithelial cell line IMR90 was cultured. Then, the cultured cells were treated with a single drug of gossypol 10 μM or phenformin 100 μM, or a mixed drug obtained by mixing them, and culture was performed for 24, 48, and 72 hours in total. The medium was removed from the cultured cells, and the cultured cells were washed twice with cold PBS. Centrifugation was performed at 1,400 rpm for 3 minutes, and then a binding buffer solution was added thereto at a concentration of 1×10^6 cells/mL. […] of the buffer solution was transferred to a 5-mL culture tube, and 5 μl of each of Annexin V-FITC and propidium iodide (PI) was added thereto. The tube was slowly vortexed to perform mixing, and then incubated for 15 minutes in a dark room at room temperature. After the incubation, a binding buffer solution (400 μl) was added thereto and a level of increase in cell death was checked by flow cytometry.

[6] = test system: pancreatic cancer cell lines Miapaca-2, Panc-1, Aspc-1, SNU-410, SNU-324, Bxpc-3; assay: SRB assay, inhibitory effect of gossypol or phenformin alone on growth of pancreatic cancer cells; format: cell-based; conditions: for inhibitory effect on cell proliferation: 48 hours after treatment with the drug, applied alone; for proliferation of the cancer cells: gossypol or phenformin added alone to each type of the pancreatic cancer cells, SRB assay
Experimental: as §3

[7] = Pancreatic cancer mouse model, body weight; conditions: oral once a day, 61 days; compared among experimental groups
Experimental: as §1, §2

Row | SMILES | proliferation level in pancreatic cancer cells [1] | intracellular ATP level [2] | level of increase in tumor volume [3] | inhibition of cell growth [4] | cell death over time in IMR90 normal cells [5] | inhibitory effect on cell proliferation [6] | proliferation of the cancer cells [6] | body weights [7]
1 | CCc1c2c(nc3ccc(OC(=O)N4CCC(N5CCCCC5)CC4)cc13)-c1cc3c(c(=O)n1C2)COC(=O)[C@]3(O)CC [irinotecan] | significantly decreased |  |  |  |  |  |  | 
2 | [H]/N=C(/N)N/C(=N/[H])NCCc1ccccc1 [phenformin] |  | decreased | somewhat decreased | significant inhibition of cell growth was not exhibited | significant increase in cell death is not exhibited | complete inhibitory effect on cell proliferation | significantly inhibited | 
3 | Cc1cc2c(C(C)C)c(O)c(O)c(C=O)c2c(O)c1-c1c(C)cc2c(C(C)C)c(O)c(O)c(C=O)c2c1O [gossypol] |  | decreased | somewhat decreased | significant inhibition of cell growth was not exhibited | significant increase in cell death is not exhibited | complete inhibitory effect on cell proliferation | significantly inhibited | not significantly different
